# According to article PMC11477298, “Small Molecules Inducing Autophagic Degradation of Expanded Polyglutamine Protein through Interaction with Both Mutant ATXN3 and LC3” (International Journal of Molecular Sciences, 2024):
# What was measured:
# ATXN3-Q75-VC and VN-LC3 = experiment: Co-immunoprecipitation of VN-LC3 with ATXN3-Q75-VC in mixed 293T cell lysates; assay type: binding; details: compound 100 µM; compared to without compound treatment
# Description: EcoRI-NcoI ATXN3 C-terminal Q14 and Q75-containing fragment (amino acids 251–361 in full-length ATXN3-Q14 [NM_004993]; [20]) and NcoI-NotI Venus C-terminal fragment (VC212-239) were subcloned into EcoRI- and NotI-digested pcDNA3 vector (Invitrogen) to generate pcDNA3-ATXN3-Q14−75-VC plasmid for producing ATXN3-Q14−75-VC fusion protein linked by a 6-amino acid polypeptide linker (containing NcoI restriction site). In addition, BamHI-XbaI Venus-N-terminal fragment (VN1-211) and XbaI-BamHI LC3 cDNA fragment (MAP1LC3B, NM_022818) were subcloned into BamHI-digested pcDNA5/FRT/TO vector (Invitrogen) to generate pcDNA5-VN-LC3 plasmid for producing VN-LC3 fusion protein linked by a 2-amino acid dipeptide linker (containing XbaI restriction site). The recombinant pcDNA3-ATXN3-Q14-VC, pcDNA3-ATXN3-Q75-VC, or pcDNA5-VN-LC3 plasmid (2 μg) was transiently transfected into 293T cells (2 × 10^5/6-well) using T-Pro non-liposome transfection reagent II (T-Pro Biotechnology #JT97-N002M, New Taipei City, Taiwan) according to the supplier’s instruction. After 48 h, cell lysate containing ATXN3-Q14-VC, ATXN3-Q75-VC, or VN-LC3 fusion protein was prepared using cytoskeleton (CSK) buffer containing 10 mM PIPES, 100 mM NaCl, 300 mM sucrose, 1 mM EGTA, 1 mM MgCl2, and 1 mM DTT and quantified, as described.
# In this case, 293T cell lysates with transiently expressed ATXN3-Q14-VC, ATXN3-Q75-VC, or VN-LC3, and mixture of ATXN3-Q75-VC and VN-LC3 (100 μg of each) in 400 μL CSK buffer were incubated at 4 °C under gentle rotation. To test the concept of the ATTEC, 100 μM of the compound (NC009-1, -2, and -6 or LM-031) was added to the lysates containing ATXN3-Q75-VC and VN-LC3 proteins. After overnight incubation, ATXN3-Q14−75-VC protein was immunoprecipitated with rabbit ataxin-3 (1:1000; Invitrogen #PA5-26251) or mouse 5TF1-1C2 antibody (1:500; Merck #MAB1574, Darmstadt, Germany) at 4 °C overnight. […] The immune complexes were detected using HRP-conjugated goat anti-rabbit (#GTX213110-01) or goat anti-mouse (#GTX213111-01) IgG antibody (1:5000; GeneTex) and chemiluminescent substrate, as described.
# [1] = test system: 293T cells co-expressing ATXN3-Q75-VC and VN-LC3; experiment: BiFC high-content analysis of transfected 293T cells; assay type: cell-based, human; details: compound 10 μM; 24 h post-induction; untreated = 100%; range over the three named compounds
# Description: pTRE3G-BI-VN-LC3-ATXN3-Q14−75-VC was constructed by subcloning the ATXN3-Q14−75-VC KpnI-XbaI fragment and VN-LC3 BamHI fragment of the aforementioned plasmids into the corresponding restriction sites in multiple cloning site (MCS)-2 (ATXN3-Q14−75-VC fragment) or MCS-1 (VN-LC3 fragment) of the pTRE3G-BI vector (Clontech, Mountain View, CA, USA). The resulting plasmid allows the simultaneous expression of ATXN3-Q14−75-VC and VN-LC3 proteins from a bidirectional, Tet-responsive promoter that binds the Tet-On 3G trans-activator protein in the presence of doxycycline and co-transfected pCMV-Tet3G. Next, 293T cells (2 × 10^5) were plated onto 6-well plates on day 1. Upon the next day, the constructed pTRE3G-BI-VN-LC3-ATXN3-Q 14−75-VC (2 μg) together with pCMV-Tet3G (0.5 μg) were transiently co-transfected into cells using GenJet in vitro DNA transfection reagent (SignaGen Laboratories #SL100488, Rockville, MD, USA). Doxycycline (1 μg/mL) was added to cells to induce ATXN3-Q14−75-VC and VN-LC3 expression on day 3. Cell lysates were prepared at 24 h post-induction and analyzed by Western blot using ataxin-3 (1:1000; Invitrogen #PA5-26251) or LC3 (1:2000; MBL International #PM036) antibody. In addition, at 0, 6, 9, 12, and 24 h post-transfection, the pTRE3G-BI-VN-LC3-ATXN3-Q75-VC transfected cells were fixed, permeabilized, blocked, and stained with 5TF1-1C2 (1:1000; Merck #MAB1574) antibody at 4 °C overnight, followed by Cy5-donkey anti-mouse IgG secondary antibody (1:1000; Jackson ImmunoResearch #715-175-151) staining for 2 h at room temperature. Nuclei were counterstained with DAPI (0.1 μg/mL; Sigma-Aldrich). Cell images were obtained at excitation/emission wavelengths of 482/536 nm (FITC filter) for Venus, 631/692 nm (Cy5 filter) for stained expanded ATXN3-Q75 protein, and 377/447 nm (DAPI filter) for detecting nuclei (ImageXpress Micro Confocal; Molecular Devices).
# On day 3, doxycycline (1 μg/mL) was added to the aforementioned transfected 293T cells along with NC009-1, -2, or -6 or LM-031 (10 μM). At 24 h post-transfection, the transfected cells were fixed, permeabilized, blocked, and stained with 5TF1-1C2 antibody, as described. After nucleus staining (DAPI, 0.1 μg/mL), the captured images were analyzed as described for overlapped ATXN3-Q75 and Venus signals and the green fluorescence of Venus-tagged LC3 puncta using the high-content imaging system, as described.
SMILES,Amount of VN-LC3 co-immunoprecipitated by 5TF1-1C2 antibody (ATXN3-Q75-VC and VN-LC3),Green fluorescence of Venus-tagged LC3 puncta [1],Overlapping of green (Venus) and red (ATXN3-Q75) signals [1]
O=C(c1ccccc1)c1cc2c(O)cccc2oc1=O [LM-031],notably increased,121–122%,117–119%
CC(=O)/C(=C\c1ccccc1[N+](=O)[O-])Cc1c[nH]c2ccccc12 [NC009-1],notably increased,121–122%,117–119%
CC(=O)/C(=C\c1ccccc1[N+](=O)[O-])Cc1c(C)[nH]c2ccccc12 [NC009-2],notably increased,121–122%,117–119%
